Measurements: article PMC9402538, “Rational design of a sensitivity-enhanced tracer for discovering efficient APC–Asef inhibitors” (Nature Communications, 2022)
Positions count from the first letter of the chain named. Where a SMILES comes first, the peptide text is derived from it. The star is where a group is joined. Benzoyl(4-OMe) = COc1ccc(C(=O)*)cc1

Assays:
[1] = target: T1, APC WT (Homo sapiens, UniProt P25054); assay: ITC assay, APC WT; format: binding; settings: 30 °C
T1 sequence (P25054 303-739): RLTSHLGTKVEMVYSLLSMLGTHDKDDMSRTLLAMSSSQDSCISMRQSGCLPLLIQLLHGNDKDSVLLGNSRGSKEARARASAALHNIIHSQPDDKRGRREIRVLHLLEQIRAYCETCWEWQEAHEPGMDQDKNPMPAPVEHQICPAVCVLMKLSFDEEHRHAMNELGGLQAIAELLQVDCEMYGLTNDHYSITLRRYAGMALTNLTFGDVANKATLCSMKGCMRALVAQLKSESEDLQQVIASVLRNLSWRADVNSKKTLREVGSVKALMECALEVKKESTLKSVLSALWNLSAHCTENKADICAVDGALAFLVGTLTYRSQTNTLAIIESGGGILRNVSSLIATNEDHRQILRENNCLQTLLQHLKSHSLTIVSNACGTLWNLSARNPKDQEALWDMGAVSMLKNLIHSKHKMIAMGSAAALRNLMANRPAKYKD
Experimental: (§1) ITC experiments were performed using a MicroCal ITC200 calorimeter (Malvern Panalytical Ltd.). APC protein and peptide inhibitors were diluted with buffer containing 50 mM HEPES pH 7.5, 300 mM NaCl and 1 mM EDTA. The cells were loaded with APC proteins at 10–20 μM. All injections were performed using an initial injection of 0.2 μL followed by 19 injections of 2 μL at 100–200 μM. All measurements were carried out at 30 °C. The data were analyzed using a single-site binding model within MicroCal ITC200 analysis software to generate the stoichiometry (N), enthalpy changes (ΔH), entropy changes (ΔS), and the association constant (K) of binding. The changes in free energy (ΔG) were calculated (ΔG = ΔH-TΔS).

[2] = target: T2, APC N641A (Homo sapiens, UniProt P25054, N641A); assay: ITC assay, APC N641A mutant; format: binding
T2 sequence (P25054 303-739 N641A): T1 sequence (P25054 303-739) with N339A
Experimental: as §1

[3] = target: T3, APC W593A, N641A (Homo sapiens, UniProt P25054, N641A/W593A); assay: ITC assay, APC W593A, N641A double mutant; format: binding
T3 sequence (P25054 303-739 W593A/N641A): T1 sequence (P25054 303-739) with W291A, N339A
Experimental: as §1

[4] = target: T4, APC–Asef PPI (FLAG-tagged APC (303–876), HA-tagged Asef (170–632)) (Homo sapiens, UniProt P25054); assay: Exogenous Co-IP of APC–Asef in drug-treated HEK293T cell lysate; format: biochemical; settings: HEK293T cell lysate, 0.2, 1 and 5 μM, 2 h
T4 construct: FLAG-tagged APC (303–876) and hemagglutinin (HA)-tagged Asef (170–632) plasmids; expressed in transfected cells; host or cells: HEK293T (lysate treated with compound)
T4 sequence (P25054 303-876): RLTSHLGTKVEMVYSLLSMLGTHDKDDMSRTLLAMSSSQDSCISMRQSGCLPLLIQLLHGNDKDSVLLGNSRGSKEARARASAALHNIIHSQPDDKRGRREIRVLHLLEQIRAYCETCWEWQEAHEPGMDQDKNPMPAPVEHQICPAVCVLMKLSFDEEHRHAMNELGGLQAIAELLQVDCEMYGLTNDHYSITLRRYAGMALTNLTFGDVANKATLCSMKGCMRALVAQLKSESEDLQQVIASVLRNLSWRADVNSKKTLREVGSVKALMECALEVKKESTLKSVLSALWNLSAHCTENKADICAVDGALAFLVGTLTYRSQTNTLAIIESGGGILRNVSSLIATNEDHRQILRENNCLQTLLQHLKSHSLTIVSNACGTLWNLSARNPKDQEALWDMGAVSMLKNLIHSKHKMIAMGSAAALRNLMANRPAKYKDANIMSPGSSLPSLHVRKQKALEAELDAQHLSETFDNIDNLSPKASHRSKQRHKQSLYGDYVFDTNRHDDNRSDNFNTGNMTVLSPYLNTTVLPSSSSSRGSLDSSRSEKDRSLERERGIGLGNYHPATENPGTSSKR
Experimental: To investigate the effect of MAI-516 on the APC–Asef PPI, we first examined whether MAI-516 could perturb the APC–Asef PPI in cell lysates. HEK293T cells were transiently transfected with FLAG-tagged APC (303–876) and hemagglutinin (HA)-tagged Asef (170–632) plasmids. The cell lysates were harvested several hours after transfection and treated with different concentrations of MAI-203 and MAI-516 for 2 h; then, they were incubated with anti-FLAG® M2 affinity gel (Sigma; A2220) for 3 h at 4 °C.

COc1ccc(C(=O)N[C@@H](C)C(=O)NCC(=O)N[C@@H](CCC(=O)O)C(=O)N[C@@H](CO)C(=O)N[C@@H](CC(C)C)C(=O)N[C@@H](Cc2ccc(O)cc2)C(=O)N[C@@H](CCC(=O)O)C(N)=O)cc1 [MAI-516] ({Benzoyl(4-OMe)}-AGESLYE-NH2)
-TΔS [1]: 4.85 kcal/mol
L/P ratio (number of sites per APC) [1]: 0.97
ΔG [1]: -11.6 kcal/mol
ΔH [1]: -16.4 kcal/mol
Kd ([1]; ITC): 4.4 nM
reduction of binding affinity vs APC WT [2]: ~2 fold
-TΔS ([2]; 30 °C): 5.45 kcal/mol
L/P ratio ([2]; 30 °C): 0.88
ΔG ([2]; 30 °C): -11 kcal/mol
Kd ([2]; ITC, 30 °C): 12 nM
reduction of binding affinity vs APC WT [3]: 200 fold
-TΔS ([3]; 30 °C): 4.9 kcal/mol
L/P ratio ([3]; 30 °C): 0.77
ΔG ([3]; 30 °C): -8.44 kcal/mol
ΔH ([3]; 30 °C): -13.3 kcal/mol
Kd ([3]; ITC, 30 °C): 860 nM
effect on APC–Asef PPI (Co-IP) [4]: dose-dependently attenuate the APC–Asef PPI
